According to patent publication US20230055961A1, “PENTAFLUOROBENZENESULFONAMIDE DERIVATIVES AND USES THEREOF” (Dunad Therapeutics Ltd., priority 2019, published 2023):

How the values were obtained:
[1] = target: T1, BTK (Homo sapiens, UniProt Q06187); assay: Covalent modification of BTK by mass spectrometry of the intact protein; format: binding; set-up: His-tagged BTK kinase domain was prepared from pET-28b(+)-BTK (402-655) vector; details: 10 μM BTK, 50 μM compound, 2 hours at 30° C.; expected 596 Da
Method: After incubation of 10 μM BTK in the presence of 50 μM Compound 5-1 for 2 hours at 30° C., the mass of the modified protein was determined by mass spectrometry. […] After incubation with Compound 5-1, the intensity of this had decreased by an order of magnitude, and the most intense peak is consistent with the protein whose mass was increased by 595 Da, corresponding closely to the expected mass of the inhibitor Compound 5-1 (less one fluoride from inhibitor, and one proton from protein, 596 Da).
Target sequence in this assay (Q06187 402-655 limits assumed, species assumed): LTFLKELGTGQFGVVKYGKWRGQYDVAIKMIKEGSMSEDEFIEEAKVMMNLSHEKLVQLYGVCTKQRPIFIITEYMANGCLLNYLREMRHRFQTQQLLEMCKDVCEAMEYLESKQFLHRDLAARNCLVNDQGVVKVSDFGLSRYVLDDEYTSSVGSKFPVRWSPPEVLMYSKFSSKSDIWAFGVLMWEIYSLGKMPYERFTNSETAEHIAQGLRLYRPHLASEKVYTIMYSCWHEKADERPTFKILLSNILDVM

[2] = target: T2, BMX (Homo sapiens, UniProt P51813); assay: In vitro kinase inhibition studies (Table 9), BMX; format: biochemical
T2 sequence (P51813 1-675): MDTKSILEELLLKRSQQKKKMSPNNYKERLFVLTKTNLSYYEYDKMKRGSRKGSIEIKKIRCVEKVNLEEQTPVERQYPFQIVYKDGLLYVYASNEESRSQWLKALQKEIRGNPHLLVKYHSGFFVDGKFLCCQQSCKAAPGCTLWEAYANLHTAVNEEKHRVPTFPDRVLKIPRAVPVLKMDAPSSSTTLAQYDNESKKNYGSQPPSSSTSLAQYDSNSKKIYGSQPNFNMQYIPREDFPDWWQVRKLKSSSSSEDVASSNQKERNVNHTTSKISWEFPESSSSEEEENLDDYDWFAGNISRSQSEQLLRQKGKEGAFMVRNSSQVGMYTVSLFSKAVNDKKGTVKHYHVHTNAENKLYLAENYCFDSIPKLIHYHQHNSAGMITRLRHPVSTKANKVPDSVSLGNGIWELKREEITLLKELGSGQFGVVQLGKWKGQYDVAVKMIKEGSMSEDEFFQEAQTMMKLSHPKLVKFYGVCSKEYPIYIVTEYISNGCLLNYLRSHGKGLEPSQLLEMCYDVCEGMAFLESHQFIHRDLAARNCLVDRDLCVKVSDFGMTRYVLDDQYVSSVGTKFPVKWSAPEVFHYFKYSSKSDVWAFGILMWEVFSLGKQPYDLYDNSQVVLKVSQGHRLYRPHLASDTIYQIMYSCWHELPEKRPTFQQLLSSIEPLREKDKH

[3] = target: SRC (Homo sapiens, UniProt P12931); assay: In vitro kinase inhibition studies (Table 13), SRC; format: biochemical
[4] = target: EGFR L850R (Homo sapiens, UniProt P00533); assay: In vitro kinase inhibition studies (Table 13), EGFR L850R; format: biochemical
[5] = target: BLK (Homo sapiens, UniProt P51451); assay: In vitro kinase inhibition studies (Table 13), BLK; format: biochemical
[6] = system: normal pooled human fibroblasts; assay: IC50 of Ibrutinib analogs against normal human cells, pooled human fibroblasts (Table 14); format: cell-based; details: Fibroblast, Table 14, normal human cell line
Method: Anti-cancer efficacy of exemplary compounds of this application is assessed in vitro in different cancer cell lines. Cell viability is examined following treatment at various concentration of inhibitor (0.097656-50 μM) using a cell Titer-Blue cell viability assay. 1×10^4 cells (NHF cells)/well are plated in 96-well assay plates in culture medium. All cells are grown in DMEM, IMDM and RPMI-1640 supplemented with 10% FBS. After 24 hrs, test compounds and vehicle controls are added to appropriate wells so the final volume is […] in each well. The cells are cultured for the desired test exposure period (72 hrs) at 37° C. and 5% CO2. The assay plates are removed from 37° C. incubator and 20 μl/well of CellTiter-Blue® Reagent is added. The plates are incubated using standard cell culture conditions for 1-4 hours and the plates are shaken for 10 seconds and record fluorescence at 560/590 nm.
Therapeutic index=(IC50 human fibroblasts/IC50 RLcells)

[7] = target: T2, BMX; assay: In vitro kinase inhibition studies (Table 13), BMX; format: biochemical
[8] = target: EGFR L850R, T790M (Homo sapiens, UniProt P00533, T790M, form not given); assay: In vitro kinase inhibition studies (Table 13), EGFR L850R, T790M; format: biochemical
Chain of EGFR L850R, T790M (P00533 whole entry T790M/L858R, form open): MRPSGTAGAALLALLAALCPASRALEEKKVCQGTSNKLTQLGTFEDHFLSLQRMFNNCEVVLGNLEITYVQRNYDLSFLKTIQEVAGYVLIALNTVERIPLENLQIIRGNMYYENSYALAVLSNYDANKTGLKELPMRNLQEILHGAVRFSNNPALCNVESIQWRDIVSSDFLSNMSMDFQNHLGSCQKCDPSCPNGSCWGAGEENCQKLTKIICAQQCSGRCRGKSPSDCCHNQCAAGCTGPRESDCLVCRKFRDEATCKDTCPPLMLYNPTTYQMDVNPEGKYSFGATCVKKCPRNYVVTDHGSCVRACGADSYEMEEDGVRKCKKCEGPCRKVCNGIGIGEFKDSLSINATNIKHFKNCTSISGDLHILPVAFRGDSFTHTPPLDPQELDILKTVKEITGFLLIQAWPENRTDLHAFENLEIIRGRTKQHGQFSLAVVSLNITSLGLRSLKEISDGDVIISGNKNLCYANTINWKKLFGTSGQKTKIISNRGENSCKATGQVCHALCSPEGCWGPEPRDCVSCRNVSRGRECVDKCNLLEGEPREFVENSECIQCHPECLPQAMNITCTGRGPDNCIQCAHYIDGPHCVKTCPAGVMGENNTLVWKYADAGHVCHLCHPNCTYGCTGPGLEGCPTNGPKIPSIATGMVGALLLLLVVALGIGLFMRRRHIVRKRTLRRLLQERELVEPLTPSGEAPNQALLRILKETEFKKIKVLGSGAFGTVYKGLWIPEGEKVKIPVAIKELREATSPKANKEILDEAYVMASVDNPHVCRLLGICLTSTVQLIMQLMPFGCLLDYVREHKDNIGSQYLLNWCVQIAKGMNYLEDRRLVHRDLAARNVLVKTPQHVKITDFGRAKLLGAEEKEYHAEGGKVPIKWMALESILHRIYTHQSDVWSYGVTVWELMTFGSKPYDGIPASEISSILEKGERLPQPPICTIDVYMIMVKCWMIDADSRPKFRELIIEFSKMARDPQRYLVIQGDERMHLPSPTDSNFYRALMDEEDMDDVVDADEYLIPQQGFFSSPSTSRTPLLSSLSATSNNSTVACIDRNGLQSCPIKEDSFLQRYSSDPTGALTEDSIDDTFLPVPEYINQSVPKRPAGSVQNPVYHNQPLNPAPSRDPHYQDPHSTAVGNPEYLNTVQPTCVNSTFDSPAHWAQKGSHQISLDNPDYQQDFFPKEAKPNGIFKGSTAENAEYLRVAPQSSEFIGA

[9] = target: FGFR1 (Homo sapiens, UniProt P11362); assay: In vitro kinase inhibition studies (Table 9), FGFR1; format: biochemical
[10] = target: FGFR4 (Homo sapiens, UniProt P22455); assay: In vitro kinase inhibition studies (Table 9), FGFR4; format: biochemical
Chain of FGFR4 (P22455 22-802, species assumed): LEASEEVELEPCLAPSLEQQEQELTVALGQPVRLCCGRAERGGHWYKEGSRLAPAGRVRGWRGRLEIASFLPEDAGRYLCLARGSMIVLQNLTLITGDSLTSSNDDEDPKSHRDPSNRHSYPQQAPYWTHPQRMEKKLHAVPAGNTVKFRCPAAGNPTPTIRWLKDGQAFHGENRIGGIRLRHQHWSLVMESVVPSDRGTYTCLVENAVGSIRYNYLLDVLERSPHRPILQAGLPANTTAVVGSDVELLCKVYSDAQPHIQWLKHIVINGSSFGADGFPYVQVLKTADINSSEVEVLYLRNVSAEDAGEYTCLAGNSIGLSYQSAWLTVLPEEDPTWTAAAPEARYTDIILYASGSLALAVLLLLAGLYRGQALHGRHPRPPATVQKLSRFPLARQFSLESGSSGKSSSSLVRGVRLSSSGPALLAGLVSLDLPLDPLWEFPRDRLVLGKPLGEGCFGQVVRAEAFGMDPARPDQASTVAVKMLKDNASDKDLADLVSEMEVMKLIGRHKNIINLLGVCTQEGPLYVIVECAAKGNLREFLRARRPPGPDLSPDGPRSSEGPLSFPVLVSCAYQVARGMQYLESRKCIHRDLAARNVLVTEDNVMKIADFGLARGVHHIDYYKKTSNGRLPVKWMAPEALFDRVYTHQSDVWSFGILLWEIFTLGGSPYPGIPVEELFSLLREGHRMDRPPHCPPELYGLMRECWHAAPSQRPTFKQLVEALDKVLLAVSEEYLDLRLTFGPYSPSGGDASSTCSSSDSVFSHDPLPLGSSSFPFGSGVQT

[11] = target: ERBB4 (Homo sapiens, UniProt Q15303); assay: In vitro kinase inhibition studies (Table 13), ERBB4; format: biochemical
Chain of ERBB4 (Q15303 26-1308, species assumed): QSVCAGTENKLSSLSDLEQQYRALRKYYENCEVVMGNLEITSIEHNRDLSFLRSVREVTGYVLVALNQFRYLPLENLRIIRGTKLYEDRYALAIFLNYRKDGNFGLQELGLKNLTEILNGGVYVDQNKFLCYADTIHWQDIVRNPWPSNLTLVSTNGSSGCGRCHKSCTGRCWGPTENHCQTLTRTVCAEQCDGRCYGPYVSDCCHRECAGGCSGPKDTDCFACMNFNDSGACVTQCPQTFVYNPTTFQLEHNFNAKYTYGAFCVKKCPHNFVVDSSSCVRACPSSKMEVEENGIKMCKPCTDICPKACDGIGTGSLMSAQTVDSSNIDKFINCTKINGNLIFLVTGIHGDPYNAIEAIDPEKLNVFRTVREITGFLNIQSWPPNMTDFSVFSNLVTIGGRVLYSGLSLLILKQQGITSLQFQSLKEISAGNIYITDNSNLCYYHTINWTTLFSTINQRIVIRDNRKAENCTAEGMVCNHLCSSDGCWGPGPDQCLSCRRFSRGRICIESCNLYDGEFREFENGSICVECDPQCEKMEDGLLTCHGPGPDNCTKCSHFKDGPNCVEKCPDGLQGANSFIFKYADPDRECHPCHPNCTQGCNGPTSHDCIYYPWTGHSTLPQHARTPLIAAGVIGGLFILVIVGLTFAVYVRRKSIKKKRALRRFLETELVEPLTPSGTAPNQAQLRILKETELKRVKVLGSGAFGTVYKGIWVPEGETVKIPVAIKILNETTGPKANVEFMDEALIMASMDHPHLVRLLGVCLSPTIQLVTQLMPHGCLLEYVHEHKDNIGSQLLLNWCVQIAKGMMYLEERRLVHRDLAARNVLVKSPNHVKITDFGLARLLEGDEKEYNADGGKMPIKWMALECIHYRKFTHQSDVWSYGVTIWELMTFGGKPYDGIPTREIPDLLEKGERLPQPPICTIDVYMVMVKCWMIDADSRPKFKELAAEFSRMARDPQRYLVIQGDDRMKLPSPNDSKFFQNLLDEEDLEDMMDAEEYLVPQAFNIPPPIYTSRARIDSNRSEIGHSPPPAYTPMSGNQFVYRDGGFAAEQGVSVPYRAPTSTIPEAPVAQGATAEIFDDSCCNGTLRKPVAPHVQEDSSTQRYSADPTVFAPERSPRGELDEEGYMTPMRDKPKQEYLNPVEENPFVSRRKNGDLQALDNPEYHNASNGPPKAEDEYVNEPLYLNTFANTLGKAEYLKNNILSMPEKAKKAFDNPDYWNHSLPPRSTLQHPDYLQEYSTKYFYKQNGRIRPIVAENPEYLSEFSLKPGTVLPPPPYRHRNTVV

[12] = target: MAP2K7 (Homo sapiens, UniProt O14733); assay: In vitro kinase inhibition studies (Table 13), MAP2K7; format: biochemical
[13] = target: FGFR2 (Homo sapiens, UniProt P21802); assay: In vitro kinase inhibition studies (Table 13), FGFR2; format: biochemical
Chain of FGFR2 (P21802 22-821, species assumed): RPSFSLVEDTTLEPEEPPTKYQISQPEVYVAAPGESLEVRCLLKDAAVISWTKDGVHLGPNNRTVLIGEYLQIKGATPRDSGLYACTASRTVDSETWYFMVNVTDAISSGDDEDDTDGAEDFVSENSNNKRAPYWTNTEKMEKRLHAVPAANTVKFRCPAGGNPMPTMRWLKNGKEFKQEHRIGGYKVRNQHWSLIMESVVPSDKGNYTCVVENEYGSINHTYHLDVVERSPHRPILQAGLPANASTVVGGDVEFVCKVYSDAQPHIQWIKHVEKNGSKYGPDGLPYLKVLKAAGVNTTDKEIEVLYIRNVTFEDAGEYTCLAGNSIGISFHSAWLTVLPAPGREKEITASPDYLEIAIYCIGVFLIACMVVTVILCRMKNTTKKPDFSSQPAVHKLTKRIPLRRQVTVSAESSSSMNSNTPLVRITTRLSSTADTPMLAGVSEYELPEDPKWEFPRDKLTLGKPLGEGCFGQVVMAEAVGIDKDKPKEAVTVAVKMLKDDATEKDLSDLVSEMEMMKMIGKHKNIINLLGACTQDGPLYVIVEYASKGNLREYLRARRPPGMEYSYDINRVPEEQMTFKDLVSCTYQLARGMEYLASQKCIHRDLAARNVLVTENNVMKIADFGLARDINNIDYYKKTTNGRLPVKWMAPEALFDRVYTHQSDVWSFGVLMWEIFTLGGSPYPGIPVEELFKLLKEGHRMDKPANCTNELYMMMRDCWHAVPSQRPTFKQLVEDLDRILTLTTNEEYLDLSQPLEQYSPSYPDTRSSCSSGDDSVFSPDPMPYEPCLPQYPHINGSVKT

[14] = target: T1, BTK; assay: Enzyme kinetic analysis of BTK inhibition (time-dependent inhibition); format: biochemical; details: 0.1 nM BTK, 500 μM ATP, 60-700 nM compound
Source text: One of ordinary skill in the art will recognize that this is consistent with the irreversible inhibition of BTK by Compound 5-1.
Target sequence in this assay (Q06187 whole entry, species assumed, the tested form may be a part): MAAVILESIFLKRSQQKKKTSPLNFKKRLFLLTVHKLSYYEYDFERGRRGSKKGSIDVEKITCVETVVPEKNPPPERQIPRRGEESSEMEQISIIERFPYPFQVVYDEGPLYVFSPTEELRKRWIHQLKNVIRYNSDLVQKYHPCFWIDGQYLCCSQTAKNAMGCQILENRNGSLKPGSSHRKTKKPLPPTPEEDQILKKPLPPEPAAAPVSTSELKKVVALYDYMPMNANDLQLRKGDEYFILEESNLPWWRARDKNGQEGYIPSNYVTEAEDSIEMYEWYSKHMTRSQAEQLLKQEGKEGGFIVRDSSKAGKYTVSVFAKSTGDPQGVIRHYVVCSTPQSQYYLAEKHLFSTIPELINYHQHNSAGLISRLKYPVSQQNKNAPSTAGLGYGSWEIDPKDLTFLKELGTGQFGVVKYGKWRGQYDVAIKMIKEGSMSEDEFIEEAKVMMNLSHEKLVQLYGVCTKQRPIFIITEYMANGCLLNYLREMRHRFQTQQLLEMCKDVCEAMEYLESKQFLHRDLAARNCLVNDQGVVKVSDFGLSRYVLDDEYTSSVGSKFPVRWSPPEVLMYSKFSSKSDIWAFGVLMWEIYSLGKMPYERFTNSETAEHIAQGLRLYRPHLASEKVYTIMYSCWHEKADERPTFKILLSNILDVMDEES

SMILES: Nc1ncnc2c1c(-c1ccc(Oc3ccccc3)cc1)nn2[C@@H]1CCCN(S(=O)(=O)c2c(F)c(F)c(F)c(F)c2F)C1 [Compound 5-1, (R)-1-(1-((perfluorophenyl)sulfonyl)piperidin-3-yl)-3-(4-phenoxyphenyl)-1H-pyrazolo[3,4-d]pyrimidin-4-amine]
- mass increase of BTK protein after incubation with compound [1]: 595 Da
- IC50 [2]: 0.0001 to 0.01 µM
- IC50 [3]: 100 to 1000 nM
- IC50 [4]: 100 to 1000 nM
- IC50 [5]: 100 to 1000 nM
- IC50 [6]: 6.2 µM
- IC50 [7]: 0.1 to 10 nM
- IC50 [8]: 100 to 1000 nM
- IC50 [9]: 0.01 to 0.3 µM
- IC50 [10]: 0.01 to 0.3 µM
- IC50 [11]: 100 to 1000 nM
- IC50 [12]: 10 to 100 nM
- IC50 [13]: 100 to 1000 nM
- inhibition profile of BTK by enzyme kinetic analysis [14]: time-dependent inhibition
